Entries after “also recorded” stand apart in the source; their conditions may differ.
Experiments:
EGF receptor mRNA = assay: In situ hybridization of EGF receptor mRNA after nigral 6-OHDA lesion and/or striatal TGFα infusion; type: in vivo, rat
Text: (§1) Adult male Sprague-Dawley rats weighing 250-300 grams were obtained from Simonsen (Gilroy, Calif.) and assigned to one of five treatment groups: (1) striatal TGFα infusion, nigral 6-OHDA lesion (hereafter, “lesion”); (2) TGFα infusion, no lesion; (3) artificial cerebrospinal (aCSF) infusion, lesion; (4) aCSF infusion, no lesion; (5) no infusion, no lesion. Four to eight animals were used per experimental group. The animals were monitored after each surgical procedure until fully recovered and maintained at all other times in a temperature and humidity controlled vivarium.
(§2) Rats were anesthetized with 8 mg xylazine and 100 mg ketamine per kilogram body weight. […] The success and extent of 6-OHDA lesions were monitored by tyrosine hydroxylase (TH) mRNA in situ hybridization in the midbrain. TH is the rate-limiting enzyme in the dopamine synthetic pathway and is a common marker for dopamine-producing neurons. One animal with an incomplete lesion (retaining significant numbers of nigral TH-IR cells) was excluded from the study and is not included in the total number of animals.
(§3) Osmotic minipumps (model 2002, Alzet, Inc.) were implanted four to five weeks post-lesion. […] The minipump itself was placed subcutaneously in the interscapular region.
(§4) At the end of the infusion period, animals were sacrificed by decapitation. Their brains were quickly removed, frozen in isopentane at −20° C., and stored at −70° C. Coronal cryostat sections were cut at 20 μm and thaw-adhered to Vectabond™ (Vector Labs, Inc.) coated slides in ordered anterior-to-posterior rows. The sections were postfixed with 4% paraformaldehyde in 0.1 M phosphate buffer (pH 7.4) for one hour, rinsed in phosphate buffer and air dried. Sections were stored with desiccant at −20° C. until processed.
TGFα mRNA probes were generated from a 550 nucleotide XbaI/BamHI cDNA fragment from the 5′ end of rat TGFα subcloned into pGEM 7Zf (Promega, Inc.). Antisense and sense probes were transcribed with SP6 and T7 polymerases, respectively. Rat EGF receptor mRNA probes were produced from a 718 base pair BamHI/SphI insert from the 5′ end of the gene in pGEM 7Zf. Probes for rat TH were created using the 1.2 kb BamHI/EcoRI fragment subcloned into pGEM 7Zf. Antisense subclones for EGF receptor and TH were transcribed with T7 polymerase. Sense subclones for EGF receptor and TH were transcribed with SP6 polymerase. All probes were radiolabeled by transcription in the presence of [^35S]UTP (NEN Research Products, Inc.).
In situ nucleic acid hybridization was performed according to the method described by Simmons et al. 1989, supra). Parallel sections from experimental and control animals were hybridized overnight at 65° C. with sense or antisense probes at a concentration of 10^7 cpm/ml.

TGFα mRNA = assay: In situ hybridization of TGFα mRNA after nigral 6-OHDA lesion and/or striatal TGFα infusion; type: in vivo, rat
Text: as §1, §2, §3, §4
TGFα mRNA probes were generated from a 550 nucleotide XbaI/BamHI cDNA fragment from the 5′ end of rat TGFα subcloned into pGEM 7Zf (Promega, Inc.). Antisense and sense probes were transcribed with SP6 and T7 polymerases, respectively. […]

[1] = system: neural precursor cells of the subependymal zone; assay: Periventricular cellular expansion and striatal ridge formation (thionin, silver staining, immunohistochemistry); type: in vivo, rat; conditions: for (incidence of striatal ridge) / Expansion (incidence of cellular expansion along ventricle): midstriatal infusion 0.5 μg/day
Protocol: Adult male Sprague-Dawley rats weighing 250-300 grams were used throughout the study. Twenty-four animals received standard midstriatal infusions of rat TGFα (0.5 μg/day; Sigma Chemical Co.). Another 26 rats received either artificial cerebrospinal fluid (“aCSF”) or no infusion. A subset of animals in the standard TGFα infusion group and the control group received stereotaxic 6-OHDA injections into the substantia nigra 48 hours after the infusions were begun. Animals used in this portion of the study were classified into six groups according to their infusion-lesion combination, as follows: TGFα infusion, lesion (n=13); TGFα infusion, no lesion (n=11); aCSF infusion, lesion (n=12); aCSF infusion, no lesion (n=9); no infusion, lesion (n=1); no infusion, no lesion (n=4).
Additional animals received TGFα infusions into other regions of striatum, the lateral ventricle, cerebral cortex, or the septum. Four more animals (two per group) received midstriatal TGFα infusions at one-half or one-tenth the standard dose. Also, two animals received midstriatal infusions of epidermal growth factor (EGF) instead of TGFα. The EGF administered in these rats was at the standard 0.5 μg/day dose. All of the animals in these extra groups were lesioned. Rats in all of the experiments were typically perfused one to 16 days postlesion (3-18 days of infusion). […] Brain sections were prepared and stained using various immunocytochemical and histochemical techniques.
Rats were anesthetized with 8 mg xylazine and 100 mg ketamine/kg. Infusions of TGFα were provided up to 18 days by Alzet osmotic minipump (2002). The minipumps were filled to about 200 μl with either aCSF for control animals or 20 μg TGFα in 400 μl of aCSF (50 μg/ml) for experimental animals. Under sterile conditions, the infusion cannula was positioned to stereotaxic coordinates (+1.2 A/P; +2.7 M/L; −6.0 D/V) based on Bregma (Paxinos and Watson, The Rat Brain in Stereotaxic Coordinates, Academic Press, San Diego, 1986) and cemented to the top of the skull with dental cement. The infusate was delivered via cannula at approximately 0.5 μl/hour. Some additional control animals received infusions either into the lateral ventricle, the overlying cortex, or other areas.
Forty-eight hours after the minipump implant, rats were anesthetized as above. A chilled 4.8 mg/ml solution of 6-OHDA HCl was prepared immediately prior to injection. […] A 6-8 μl volume was injected at a rate of 1 μl/minute.
Animals were perfused with 500 ml of 4% paraformaldehyde in 0.1 M phosphate buffered saline (PBS; pH 7.4) one to 16 days postlesion and their brains placed into 20% sucrose. The next day, the brains were frozen in isopentane at −20° C. Forty-micron coronal sections were then cut on a freezing microtome into 2% paraformaldehyde in 0.1 M PBS. Continuous sections were taken through the striatum and substantia nigra-VTA. Representative sections were taken through the rest of the brain.
Microtomed brain sections for Nissl staining were mounted onto gelatin-coated slides and allowed to dry overnight. They were then dehydrated and rehydrated through ethanol baths, and placed in Thionin solution for approximately four minutes. The sections were dehydrated through the series of ethanol baths, cleared in successive Histoclear™ washes, and coverslipped. Section were viewed under light microscopy and photographed with Technical Pan Film™ (Kodak, Inc.) at ISO 100 (HC-110 processing for six minutes).
Degenerating fibers and cells of the ridge were labeled using a modification to the Nauta staining method, similar to Procedure I of Fink-Heimer (Giolli and Karamanlidis, In: Neuroanatomical Research Techniques, R. T. Robertson, Ed., pp. 211-240, Academic Press, New York, 1978).

[2] = system: stem and neuroprogenitor cells in the SVZ; assay: Morphological studies of proliferation, directed migration and differentiation induction (Example 3); type: in vivo, rat
Text: In situ hybridization histochemistry: TGFα mRNA probes were generated from a 550 nucleotide XbaI/BamHI cDNA fragment from the 5′ end of rat TGFα, subcloned into pGEM 7Zf (Promega, Inc). Antisense and sense probes were transcribed with SP6 and T7 polymerases, respectively. Rat EGF receptor mRNA probes were produced from a 718 base pair BamHI/SphI insert from the 5′ end of the gene in pGEM 7Zf. Probes for rat TH were created using the […] BamHI/EcoRI fragment subcloned into pGEM 7Zf. Antisense subclones for EGF receptor and TH were transcribed with T7 polymerase. Sense subclones for EGF receptor and TH were transcribed with SP6 polymerase. All probes were radiolabeled by transcription in the presence of [35S]UTP (NEN Research, Inc). In situ nucleic acid hybridization was performed according to Simmons (1989) J. Histochem. 12:169-181). Parallel sections from experimental and control animals were hybridized overnight at 65° C. with sense or antisense probes at a concentration of […]. Adjacent sections from the same animals were hybridized to each of the probes so that direct comparison could be made of their anatomical distributions. […] After successful development of the autoradiography film, analysis and quantitation was done using MCID (Imaging Research, Inc).

[3] = system: neural precursor cells of the subependymal zone; assay: Periventricular cellular expansion and striatal ridge formation (thionin, silver staining, immunohistochemistry); type: in vivo, rat; conditions: three months after the TGFα infusion pump was removed
[4] = system: stem and neuroprogenitor cells in the SVZ; assay: Morphological studies of proliferation, directed migration and differentiation induction (Example 3); type: in vivo, rat; remark: listed apart in the source
[5] = midstriatal EGF infusion 0.5 μg/day, lesioned animals
[6] = intracerebroventricular (ICV) infusion ipsilateral to lesion, two weeks
[7] = lower doses of TGFα (one-half or one-tenth the standard dose), lesioned
[8] = infusion into the lateral ventricle, 6-OHDA-lesioned

Cl.NCCc1cc(O)c(O)cc1O [6-OHDA, 6-hydroxydopamine HCl, reference compound]
EGF receptor hybridization in the ipsilateral SN-VTA (EGF receptor mRNA; 6-OHDA lesion, midbrain): abolished | striatal and subependymal EGF receptor hybridization (EGF receptor mRNA; 6-OHDA lesioned animals compared to normal animals): unchanged | contralateral TGFα mRNA hybridization (TGFα mRNA; unilateral nigral 6-OHDA lesion): no effect | reduction of TGFα mRNA hybridization in the ipsilateral striatum (TGFα mRNA; unilateral nigral 6-OHDA lesion, several weeks post-lesion): 25%

EGF: epidermal growth factor, infused midstriatally instead of TGFα at 0.5 μg/day (NSDSECPLSHDGYCLHDGVCMYIEALDKYACNCVVGYIGERCQYRDLKWWELR; Epidermal growth factor; UniProt P01133 971-1023, looked up)
cellular expansion along the ventricle [1, 5]: induced the cellular expansion along the ventricle | formation of the striatal ridge [1, 5]: did not induce formation of the striatal ridge

TGFα: transforming growth factor alpha polypeptide, EGF-family growth factor that binds the EGF receptor; infused into rat brain
expression of EGFr mRNA in the SVZ ([2]; 6-OHDA lesion and TGF alpha infusion): significant increase | expression of EGFr mRNA in the SVZ ([2]; TGF alpha infusion, no 6-OHDA lesion): significant increase | difference in distance between lateral extents of the ridges and the ventricle wall, 12 vs 16 days of infusion ([1]; 6-OHDA lesion, midstriatal TGFα): approximately 1.6 mm | distance of ventral portion of the ridge from the ventricle wall ([1]; 12 days infusion, 6-OHDA lesion, midstriatal TGFα): ≤ 400 μm | distance of ventral portion of the ridge from the ventricle ([1]; 16 days infusion, 6-OHDA lesion, midstriatal TGFα): up to two mm | nestin immunostaining of the ridge ([1]; TGFα infusion fourteen days, lesioned): intensely stained | GFAP immunostaining of striatal ridge and cellular expansion ([1]; TGFα-induced ridge, two weeks of infusion): failed to stain | expansion of cells along the ipsilateral ventricle ([1]; cortical infusions slightly penetrating the corpus callosum, two weeks, lesioned): stimulated expansion of cells | cell density along the lateral ventricle ([1]; dorsal cortical infusions not penetrating the corpus callosum, two weeks, lesioned): no discernable effect | buildup of cells in the adjacent ventricular wall [1, 6]: stimulated the buildup of cells | formation of the striatal ridge [1, 6]: did not induce formation of the striatal ridge | buildup of cells along the ventricle ipsilateral to the infusion (thionin) ([1]; intrastriatal TGFα infusions of six days or more): dramatic buildup of cells | cellular expansion and ridge formation [1, 7]: induced both the cellular expansion and ridge formation | number of cells in expansion and ridge (qualitative) [1, 7]: decreased | (incidence of striatal ridge) ([1]; 6-OHDA lesion, n=13): 92% | Expansion (incidence of cellular expansion along ventricle) ([1]; 6-OHDA lesion, n=13): 100% | (incidence of striatal ridge) ([1]; no lesion, n=11): 27% | Expansion (incidence of cellular expansion along ventricle) ([1]; no lesion, n=11): 100% | formation of septal ridges ([1]; septal and some striatal infusions, two weeks, lesioned): stimulated the formation of septal ridges | persistence of the ridge in the striatum [3]: still prominent | effectiveness in inducing ridge formation ([4]; 10 ug dose): minimally less effective | thickening of the SVZ ([4]; 4 to 6 days of continuous infusion, lesioned animals): pronounced thickening of the SVZ | effectiveness in inducing ridge formation ([4]; 50 and 100 ug dose): equally effective | 5′BrdU incorporation into the SVZ ([4]; first three days of infusion): massively increased incorporation | nestin staining of SVZ and ridge cells ([4]; from the fourth day of infusion): nestin-positive | SVZ proliferation [4, 8]: temporary proliferation of SVZ cells | migratory ridge [4, 8]: no migratory ridge | SVZ proliferation ([4]; infusion into the septum): massive proliferation of the SVZ | β-III tubulin (neuronal lineage) staining ([4]; starting at 14 days of infusion): β-III tubulin positive cells were seen | tyrosine hydroxylase (TH) positive cells in the striatum ([4]; third and fourth week of infusion, 6-OHDA-lesioned): increasing numbers of TH positive cells | rats with ridge of dense EGF receptor mRNA hybridization in ipsilateral striatum (EGF receptor mRNA; TGFα infusion/nonlesion group): one of six | rats with ridge of dense EGF receptor mRNA hybridization in ipsilateral striatum (EGF receptor mRNA; combined TGFα infusion/6-OHDA lesion group): five of the six | EGF receptor mRNA hybridization in the ipsilateral subependymal region (EGF receptor mRNA; striatal TGFα infusion two weeks, lesioned and unlesioned): dramatically increased; also recorded: approximately doubled | apomorphine-induced rotations (6OHDA lesioned animals; animals receiving the TGFα infusions): significant reduction | improvement in rotational behavior, TGFα versus aCSF-treated control animals (6OHDA lesioned animals; infusion 14 days after 6-OHDA lesion, 14-day striatal infusion, p<0.05): 38% | animals not exhibiting rotational behavioral asymmetry following apomorphine (6OHDA lesioned animals; infusion contemporaneous with 6-OHDA lesion, entire four-week period): 10 of the 11 | other motor behaviors (exploratory, consummatory behavior) (6OHDA lesioned animals; rat, in vivo): did not appear to be adversely affected | TGFα mRNA hybridization in the infused striatum (TGFα mRNA; unlesioned animals, striatal TGFα infusion two weeks, vs contralateral or normal striata): unchanged
